Assay results: patent US20170100433A1, “MODIFIED NATURAL KILLER CELLS HAVING ANTI-FUGETACTIC PROPERTIES AND USES THEREOF” (THE GENERAL HOSPITAL CORPORATION DBA MASSACHUSETTS GENERAL …, priority 2015, published 2017)

Experiments:
human CD3+ T cells [1] = details: T cells incubated with 0.01 μM to 10 mM AMD3100; anti-fugetactic at lower, fugetactic at higher concentrations; cells harvested after 3 h
Protocol: For quantitative transmigration assays, purified human CD3^+ T cells (approximately 2×10^4 cells) are added to the upper chamber of a Transwell® insert in each well, to a total volume of 150 μl of Iscove's modified medium. […] To determine the anti-fugetactic concentration of AMD3100, the T cells are incubated with 0.01 μM to 10 mM AMD3100 prior to addition to the chamber. Cells are harvested from the lower chamber after 3 h, and cell counts are performed using a hemocytometer.

human CD3+ T cells [2] = details: CI of 1.0 is the control, triplicate wells
Protocol: Freshly prepared and purified human CD3^+ T cells were prepared from healthy donor peripheral blood. 20,000 T cells were loaded into the upper chamber of the Transwell in control, chemotactic or fugetactic settings with AMD3100 at concentrations between 0.1 μM and 10 μM. Migrated cells were counted in the lower chamber and migration quantitated as previously described. Vianello et al. The Journal of Immunology, 2006, 176: 2902-2914; Righi et al., Cancer Res.; 71(16); 5522-34, each of which is incorporated herein in its entirety.
All wells were run in triplicate.

## c1cc(CN2CCCNCCNCCCNCC2)ccc1CN1CCCNCCNCCCNCC1 [AMD3100, 1,1′-[1,4-phenylenebis(methylene)]bis [1,4,8,11-tetraazacyclotetradecane]]
Human CD3+ T cells [1]
  Effect of AMD3100 pre-incubation on T cell migration: bimodal effect
Human CD3+ T cells [2]; chemotactic setting, AMD3100 at 1 μM, FIG. 1
  CI (chemotactic index), chemotactic response: 2.3
Human CD3+ T cells [2]; fugetactic setting, AMD3100 at 0.1 μM, FIG. 2
  CI (chemotactic index), fugetactic response: 1.6
